Drawing on patent US10150771B2, “Triazolopyrazinones as PDE1 inhibitors” (H. Lundbeck A/S, priority 2014, dated 2018), this text covers IC50 and inhibition for 30 compounds.

What is called IC50 is the concentration at which inhibition is half-maximal. By inhibition is commonly meant the relative decrease from the control value, in per cent.

What all share (assay type): biochemical
In one assay the target is PDE1C (Homo sapiens, UniProt Q14123). Description: PDE1 inhibition assay (SPA), PDE1C. The following applies: concentration required to reach 50% inhibition of the enzyme; 15 nM tritium labelled cAMP; read-out: PDE1C inhibition (nM or %): IC50. The protocol:
(§1) PDE1 Inhibition Assay PDE1A, PDE1B and PDE1C assays were performed as follows: the assays were performed in 60 μL samples containing a fixed amount of the PDE1 enzym1 (sufficient to convert 20-25% of the cyclic nucleotide substrate), a buffer (50 mM HEPES pH 7.6; 10 mM MgCl2; 0.02% Tween20), 0.1 mg/ml BSA, 15 nM tritium labelled cAMP and varying amounts of inhibitors. Reactions were initiated by addition of the cyclic nucleotide substrate, and reactions were allowed to proceed for 1 h at room temperature before being terminated through mixing with 20 μL (0.2 mg) yttrium silicate SPA beads (PerkinElmer). The beads were allowed to settle for 1 h in the dark before the plates were counted in a Wallac 1450 Microbeta counter. The measured signals were converted to activity relative to an uninhibited control (100%) and IC50 values were calculated using XIFit (model 205, IDBS).

A further assay deals with PDE1B (Homo sapiens, UniProt Q01064). Briefly: PDE1 inhibition assay (SPA), PDE1B. The following applies: for IC50: concentration required to reach 50% inhibition of the enzyme, 15 nM tritium labelled cAMP, read-out: PDE1B inhibition (nM or %): IC50. The protocol:
as §1

A further assay has as its target PDE1A (Homo sapiens, UniProt P54750). Description: PDE1 inhibition assay (SPA), PDE1A. The following applies: for IC50: concentration required to reach 50% inhibition of the enzyme, 15 nM tritium labelled cAMP, read-out: PDE1A inhibition (nM or %): IC50. How it is done: as §1

PDE1C, sequence (Q14123 whole entry): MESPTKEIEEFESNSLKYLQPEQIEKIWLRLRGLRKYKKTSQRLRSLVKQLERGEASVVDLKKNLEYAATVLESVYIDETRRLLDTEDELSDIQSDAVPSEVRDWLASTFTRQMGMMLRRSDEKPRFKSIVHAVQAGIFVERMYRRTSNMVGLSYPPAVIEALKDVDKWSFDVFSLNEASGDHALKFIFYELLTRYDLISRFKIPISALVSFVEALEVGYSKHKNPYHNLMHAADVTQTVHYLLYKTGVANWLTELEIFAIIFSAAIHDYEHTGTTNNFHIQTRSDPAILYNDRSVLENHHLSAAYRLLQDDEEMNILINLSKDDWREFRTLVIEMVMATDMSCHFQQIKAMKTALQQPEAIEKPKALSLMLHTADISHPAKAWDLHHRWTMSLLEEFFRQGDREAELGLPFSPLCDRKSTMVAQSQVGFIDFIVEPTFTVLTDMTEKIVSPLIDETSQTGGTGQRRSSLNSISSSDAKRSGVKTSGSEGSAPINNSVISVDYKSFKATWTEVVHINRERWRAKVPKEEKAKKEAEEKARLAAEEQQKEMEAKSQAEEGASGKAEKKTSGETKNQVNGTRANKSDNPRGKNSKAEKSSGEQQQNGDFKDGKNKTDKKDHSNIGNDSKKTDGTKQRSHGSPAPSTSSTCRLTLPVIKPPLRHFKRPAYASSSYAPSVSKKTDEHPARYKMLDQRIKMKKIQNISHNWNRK
PDE1A, sequence (P54750 whole entry): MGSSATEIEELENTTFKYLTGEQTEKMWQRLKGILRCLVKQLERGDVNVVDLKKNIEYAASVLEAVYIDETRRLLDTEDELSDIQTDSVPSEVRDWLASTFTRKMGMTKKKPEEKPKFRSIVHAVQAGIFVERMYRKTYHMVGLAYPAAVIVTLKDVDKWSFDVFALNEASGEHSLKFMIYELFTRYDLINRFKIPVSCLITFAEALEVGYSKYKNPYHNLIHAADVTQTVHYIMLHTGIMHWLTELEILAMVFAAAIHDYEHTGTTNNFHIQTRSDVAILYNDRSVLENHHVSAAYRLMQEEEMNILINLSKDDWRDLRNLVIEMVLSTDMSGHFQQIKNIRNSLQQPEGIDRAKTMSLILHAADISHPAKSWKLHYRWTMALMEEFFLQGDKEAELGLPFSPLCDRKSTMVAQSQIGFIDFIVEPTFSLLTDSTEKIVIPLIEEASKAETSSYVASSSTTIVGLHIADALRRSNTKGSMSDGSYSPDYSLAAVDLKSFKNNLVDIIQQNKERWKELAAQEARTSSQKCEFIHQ
PDE1B, sequence (Q01064 whole entry): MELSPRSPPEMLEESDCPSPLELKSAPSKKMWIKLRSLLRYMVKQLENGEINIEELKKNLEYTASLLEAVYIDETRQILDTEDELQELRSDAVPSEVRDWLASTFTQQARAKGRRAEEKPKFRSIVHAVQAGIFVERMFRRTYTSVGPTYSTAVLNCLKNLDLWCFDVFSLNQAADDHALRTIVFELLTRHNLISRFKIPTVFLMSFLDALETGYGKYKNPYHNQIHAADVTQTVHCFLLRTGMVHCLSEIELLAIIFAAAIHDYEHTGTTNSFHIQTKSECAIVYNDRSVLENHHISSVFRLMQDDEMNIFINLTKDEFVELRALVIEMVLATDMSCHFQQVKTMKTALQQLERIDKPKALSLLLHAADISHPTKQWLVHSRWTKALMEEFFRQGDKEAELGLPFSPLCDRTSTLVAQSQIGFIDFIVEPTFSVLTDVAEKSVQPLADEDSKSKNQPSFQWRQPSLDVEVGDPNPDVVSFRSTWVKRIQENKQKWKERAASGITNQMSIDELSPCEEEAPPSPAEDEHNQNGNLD

As for `CCCc1nnc2c(=O)n(Cc3cccc(F)c3)cc(Br)n12` [5-bromo-7-(3-fluorobenzyl)-3-propyl-[1,2,4]triazolo[4,3-a]pyrazin-8(7H)-one], the half-maximal inhibitory concentration (IC50) at PDE1C was determined as 72 nM; on PDE1B, 180 nM; at PDE1A it was 149 nM.
On to `O=c1c2nnc(C3CCOCC3)n2ccn1CC1CCCCCC1` [7-(Cycloheptylmethyl)-3-(tetrahydro-2H-pyran-4-yl)-[1,2,4]triazolo[4,3-a]pyrazin-8(7H)-one], for which the IC50 came out at 42 nM on PDE1C, 33 nM on PDE1B and 43 nM on PDE1A.
Consider `O=c1c2nnc(C3CCOCC3)n2cc(Cc2ccc(F)cc2)n1Cc1cccc(F)c1` [7-(3-fluorobenzyl)-6-(4-fluorobenzyl)-3-(tetrahydro-2H-pyran-4-yl)-[1,2,4]triazolo[4,3-a]pyrazin-8(7H)-one], for which the IC50 worked out at 10 nM at PDE1C, 43 nM on PDE1B and 46 nM at PDE1A.
Taken in the same sequence, the figures for `O=c1c2nnc(C3CCOCC3)n2cc(Br)n1CC1CCCC1` [6-bromo-7-(cyclopentylmethyl)-3-(tetrahydro-2H-pyran-4-yl)-[1,2,4]triazolo[4,3-a]pyrazin-8(7H)-one] were 6 nM, 140 nM and 164 nM.
Consider `CCCc1nnc2c(=O)n(CC(C)C)ccn12` [7-Isobutyl-3-propyl-[1,2,4]triazolo[4,3-a]pyrazin-8(7H)-one], for which the IC50 at PDE1C was 970 nM; on PDE1B, 2700 nM; on PDE1A it was 3300 nM.
Taken in the same sequence, the figures for `CCCc1nnc2c(=O)n(Cc3ccccc3Cl)ccn12` [7-(2-Chlorobenzyl)-3-propyl-[1,2,4]triazolo[4,3-a]pyrazin-8(7H)-one] were 430 nM, 2500 nM and 2000 nM.
Turning to `CCCc1nnc2c(=O)n(Cc3cccc(F)c3)cc(CC)n12` [5-ethyl-7-(3-fluorobenzyl)-3-propyl-[1,2,4]triazolo[4,3-a]pyrazin-8(7H)-one], the half-inhibitory concentration (IC50) is 180 nM on PDE1C, 510 nM on PDE1B and 858 nM on PDE1A.
As for `CCCc1nnc2c(=O)n(CC3CCC(C)(C)CC3)ccn12` [7-((4,4-dimethylcyclohexyl)methyl)-3-propyl-[1,2,4]triazolo[4,3-a]pyrazin-8(7H)-one], the IC50 at PDE1C is 110 nM; on PDE1B it was 110 nM; on PDE1A, 130 nM.
`COc1ccc(Cn2c(C)cn3c(C4CCOCC4)nnc3c2=O)cc1` [7-(4-methoxybenzyl)-6-methyl-3-(tetrahydro-2H-pyran-4-yl)-[1,2,4]triazolo[4,3-a]pyrazin-8(7H)-one]: the figures for the IC50 at PDE1C, on PDE1B and on PDE1A were 37 nM, 34 nM and 54 nM, respectively.
For the compound `CCCc1nnc2c(=O)n(Cc3cccc(F)c3)cc(C)n12` [7-(3-fluorobenzyl)-5-methyl-3-propyl-[1,2,4]triazolo[4,3-a]pyrazin-8(7H)-one], the IC50 on PDE1C worked out at 260 nM; on PDE1B, 1000 nM; at PDE1A, 1360 nM.
Taken in the same sequence, the figures for `CCCc1nnc2c(=O)n(Cc3cccc(C)c3)ccn12` [7-(3-Methylbenzyl)-3-propyl-[1,2,4]triazolo[4,3-a]pyrazin-8(7H)-one] were 170 nM, 1600 nM and 1500 nM.
As to `CCCc1nnc2c(=O)n(Cc3ccccc3C)ccn12` [7-(2-Methylbenzyl)-3-propyl-[1,2,4]triazolo[4,3-a]pyrazin-8(7H)-one], on PDE1C, the IC50 was 2400 nM. For the same compound, the inhibition at 10 µM at PDE1B (1 h, % inhibition of the enzyme at a concentration of 10 micro molar of the compound, read-out: PDE1B inhibition (nM or %): % inhib) was 42%; on PDE1A (1 h, % inhibition of the enzyme at a concentration of 10 micro molar of the compound, read-out: PDE1A inhibition (nM or %): % inhib), 53%.
Turning to `CCCCC(CC)c1nnc2c(=O)n(Cc3cccc(F)c3)ccn12` (stereo not drawn) [7-(3-Fluorobenzyl)-3-(heptan-3-yl)-[1,2,4]triazolo[4,3-a]pyrazin-8(7H)-one], the IC50 on PDE1C amounted to 480 nM; on PDE1B, 1600 nM; at PDE1A, 3200 nM.
Taken in the same sequence, the figures for `CCCc1nnc2c(=O)n(Cc3ccccc3)ccn12` [7-Benzyl-3-propyl-[1,2,4]triazolo[4,3-a]pyrazin-8(7H)-one] were 110 nM, 400 nM and 770 nM.
Consider `CCCc1nnc2c(=O)n(CC3CCCCC3C)ccn12` (mixture of isomers) [7-((2-methylcyclohexyl)methyl)-3-propyl-[1,2,4]triazolo[4,3-a]pyrazin-8(7H)-one], for which the values for the IC50 on PDE1C, on PDE1B and at PDE1A were 240 nM, 260 nM and 320 nM, respectively.
The like results for `CCCc1nnc2c(=O)n(CC3CCCC3)ccn12` [7-(Cyclopentylmethyl)-3-propyl-[1,2,4]triazolo[4,3-a]pyrazin-8(7H)-one] were, in that order, 95 nM, 820 nM and 840 nM.
The like results for `CCCc1nnc2c(=O)n(CC3CCCCC3)ccn12` [7-(Cyclohexylmethyl)-3-propyl-[1,2,4]triazolo[4,3-a]pyrazin-8(7H)-one] were, in that order, 47 nM, 81 nM and 96 nM.
The like results for `CCCc1nnc2c(=O)n(CC3CCC4(CC3)CC4)ccn12` [3-propyl-7-(spiro[2.5]octan-6-ylmethyl)-[1,2,4]triazolo[4,3-a]pyrazin-8(7H)-one] were, in that order, 92 nM, 53 nM and 86 nM.
Take `Cc1ccccc1Cc1cn2c(C3CCOCC3)nnc2c(=O)n1CC1CCCC1` [7-(cyclopentylmethyl)-6-(2-methylbenzyl)-3-(tetrahydro-2H-pyran-4-yl)-[1,2,4]triazolo[4,3-a]pyrazin-8(7H)-one]: the IC50 on PDE1C is 23 nM; at PDE1B, 260 nM; at PDE1A it was 251 nM.
Taken in the same sequence, the figures for `CCCc1nnc2c(=O)n(Cc3ccc(C(F)(F)F)cc3)ccn12` [3-Propyl-7-(4-(trifluoromethyl)benzyl)-[1,2,4]triazolo[4,3-a]pyrazin-8(7H)-one] were 2100 nM, 570 nM and 1200 nM.
Taken in the same sequence, the figures for `CCCc1nnc2c(=O)n(CC34CC5CC(CC(C5)C3)C4)ccn12` [7-(((3r,5r,7r)-adamantan-1-yl)methyl)-3-propyl-[1,2,4]triazolo[4,3-a]pyrazin-8(7H)-one] were 63 nM, 210 nM and 180 nM.
The like results for `CCCCCCn1ccn2c(C3CCOCC3)nnc2c1=O` [7-Hexyl-3-(tetrahydro-2H-pyran-4-yl)-[1,2,4]triazolo[4,3-a]pyrazin-8(7H)-one] were, in that order, 1100 nM, 1000 nM and 1260 nM.
For `O=c1c2nnc(CC(F)(F)F)n2ccn1Cc1cccc(F)c1` [7-(3-Fluorobenzyl)-3-(2,2,2-trifluoroethyl)-[1,2,4]triazolo[4,3-a]pyrazin-8(7H)-one], the IC50 at PDE1C amounted to 380 nM; at PDE1B, 1400 nM; at PDE1A, 2000 nM.
Taken in the same sequence, the figures for `Cc1ccccc1Cc1cn2c(C3CCOCC3)nnc2c(=O)n1CC1CCCCC1` [7-(cyclohexylmethyl)-6-(2-methylbenzyl)-3-(tetrahydro-2H-pyran-4-yl)-[1,2,4]triazolo[4,3-a]pyrazin-8(7H)-one] were 10 nM, 44 nM and 41 nM.
The like results for `O=c1c2nnc(C3CCOCC3)n2cc(Br)n1Cc1cccc(F)c1` [6-bromo-7-(3-fluorobenzyl)-3-(tetrahydro-2H-pyran-4-yl)-[1,2,4]triazolo[4,3-a]pyrazin-8(7H)-one] were, in that order, 24 nM, 150 nM and 114 nM.
Taken in the same sequence, the figures for `CCCc1nnc2c(=O)n(CC3C4CC5CC(C4)CC3C5)ccn12` (stereo not drawn) [7-(((1r,3r,5r,7r)-adamantan-2-yl)methyl)-3-propyl-[1,2,4]triazolo[4,3-a]pyrazin-8(7H)-one] were 63 nM, 210 nM and 179 nM.
In the case of `CCCc1nnc2c(=O)n(Cc3cccc(F)c3)ccn12` [7-(3-Fluorobenzyl)-3-propyl-[1,2,4]triazolo[4,3-a]pyrazin-8(7H)-one], the values for the IC50 on PDE1C, at PDE1B and at PDE1A were 190 nM, 1200 nM and 1100 nM, respectively.
For `CCCc1nnc2c(=O)n(CC3CCC(C)CC3)ccn12` (racemic) [7-((4-methylcyclohexyl)methyl)-3-propyl-[1,2,4]triazolo[4,3-a]pyrazin-8(7H)-one], the IC50 on PDE1C stood at 65 nM; on PDE1B, 53 nM; at PDE1A, 83 nM.
The like results for `CCCc1nnc2c(=O)n(Cc3ccc(OC)cc3)c(C)cn12` [7-(4-methoxybenzyl)-6-methyl-3-propyl-[1,2,4]triazolo[4,3-a]pyrazin-8(7H)-one] were, in that order, 44 nM, 32 nM and 66 nM.
In the case of `O=c1c2nnc(C3CCOC3)n2ccn1Cc1ccc(Cl)cc1` (stereo not drawn) [7-(4-Chlorobenzyl)-3-(tetrahydrofuran-3-yl)-[1,2,4]triazolo[4,3-a]pyrazin-8(7H)-one], the IC50 on PDE1C was found to be 750 nM; at PDE1B, 840 nM; at PDE1A, 500 nM.
